Converted amounts (≈) assume the structure as drawn. Where two headings read alike, the source gives them in different places.
Legend:
P. aeruginosa ATCC 9027 = test: Antibacterial activity, pre-exposure; format: cell-based, Pseudomonas aeruginosa; conditions: for Average inhibition %, biofilms viability / Average inhibition %, planktonic cells viability / inhibition at 50 µM / inhibition at 100 µM / inhibition at 150 µM / inhibition at 200 µM: P. aeruginosa ATCC 9027, pre-exposure, ± SD; for MIC / inhibition at 50 µM / inhibition at 100 µM / inhibition at 150 µM / inhibition at 200 µM: Pseudomonas aeruginosa; for inhibition at 50 µM / inhibition at 100 µM / inhibition at 150 µM / inhibition at 200 µM: ATCC9027
Summary of the method: (§1)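 Read-outs were turbidity and resazurin reduction for planktonic cells, and resazurin followed by crystal violet biomass (A595) for biofilms. Compounds were present from inoculation onward, with 18 h aerobic growth at 37 °C under shaking.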

S. aureus ATCC 25923 [1] = test: Antibacterial activity, pre-exposure (planktonic cells and biofilm formation); format: cell-based, Staphylococcus aureus; conditions: for MIC / inhibition at 5 µM / inhibition at 10 µM / inhibition at 15 µM / inhibition at 25 µM: Staphylococcus aureus, ATCC25923; for inhibition at 5 µM / inhibition at 10 µM / inhibition at 15 µM / inhibition at 25 µM / Average inhibition %, biofilms viability / Average inhibition %, planktonic cells viability: pre-exposure, ± SD
Summary of the method: as §1

A. baumannii NCTC 13423 = test: Antibacterial activity, pre-exposure; format: cell-based, Acinetobacter baumannii; conditions: for Average inhibition %, biofilms viability / Average inhibition %, planktonic cells viability / inhibition at 10 µM / inhibition at 15 µM / inhibition at 25 µM / inhibition at 50 µM: A. baumannii NCTC 13423, pre-exposure, ± SD; for inhibition at 10 µM / inhibition at 15 µM / inhibition at 25 µM / inhibition at 50 µM / MIC: Acinetobacter baumannii, NCTC13423
Summary of the method: as §1

S. aureus ATCC 25923 [2] = test: Antibacterial activity, post-exposure on preformed 18-h-old biofilms; format: cell-based, Staphylococcus aureus; conditions: ± SD; for inhibition at 25 µM / inhibition at 50 µM / inhibition at 100 µM / inhibition at 200 µM: Staphylococcus aureus; for inhibition at 25 µM: ATCC25923, 25 µM; for inhibition at 50 µM: ATCC25923, 50 µM; for inhibition at 100 µM: ATCC25923, 100 µM; for inhibition at 200 µM: ATCC25923, 200 µM
Summary of the method: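 Biofilms grown 18 h without compound, medium then replaced and compound added for a further 24 h. Planktonic OD and resazurin (20 μM final) fluorescence (ex 560/em 590 nm) read; washed biofilms stained with 20 μM resazurin 30 min at 37 °C, then ethanol-fixed and crystal violet-stained, absorbance 595 nm.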

[3] = 50 µM, read-out: Average inhibition %, biofilms biomass
[4] = 50 µM, read-out: Average inhibition %, planktonic cells turbidity
[5] = 10 µM, read-out: Average inhibition %, biofilms biomass
[6] = 10 µM, read-out: Average inhibition %, planktonic cells turbidity
[7] = 15 µM, read-out: Average inhibition %, biofilms biomass
[8] = 15 µM, read-out: Average inhibition %, planktonic cells turbidity
[9] = 25 µM, read-out: Average inhibition %, biofilms biomass
[10] = 25 µM, read-out: Average inhibition %, planktonic cells turbidity
[11] = read-out: Average inhibition %, biofilms biomass
[12] = read-out: Average inhibition %, planktonic cells turbidity

With `CCCCCCCCc1cccc(CCC(N)(CO)CO)c1` [Compound 43, 2-Amino-2-(3-octylphenethyl)propane-1,3-diol] the “Average inhibition %, biofilms viability” value (P. aeruginosa ATCC 9027; 50 µM) was 53.1 ± 41.1%, the “Average inhibition %, planktonic cells viability” value (P. aeruginosa ATCC 9027; 50 µM) was 98.1 ± 0.5% and the “Average inhibition %, biofilms viability” value (P. aeruginosa ATCC 9027; 100 µM) was 99.2 ± 2%. For the same compound, the “Average inhibition %, planktonic cells viability” value (P. aeruginosa ATCC 9027; 100 µM) was 99 ± 1.3%, the “Average inhibition %, biofilms viability” value (P. aeruginosa ATCC 9027; 150 µM) was 99.9 ± 0.9% and the “Average inhibition %, planktonic cells viability” value (P. aeruginosa ATCC 9027; 150 µM) was 99.4 ± 0.7%. For the same compound, the “Average inhibition %, biofilms viability” value (P. aeruginosa ATCC 9027; 200 µM) was 100.3 ± 0.5%, the “Average inhibition %, planktonic cells viability” value (P. aeruginosa ATCC 9027; 200 µM) was 99.9 ± 0.1% and the MIC (P. aeruginosa ATCC 9027; ATCC9027, pre-exposure, Inactive = no activity up to 200 μM, > = some inhibition but no MIC reached, read-out: MIC P. aeruginosa ATCC 9027) was 50 to 100 µM (≈ 15.4 to 30.7 µg/mL). The MIC (P. aeruginosa ATCC 9027; ATCC9027, supplementary molecular formula strings sheet, read-out: MIC (P. aeruginosa)) was 50 to 100 µM (≈ 15.4 to 30.7 µg/mL), the inhibition at 50 µM (P. aeruginosa ATCC 9027; [3]) was 52.1 ± 19.8% and the inhibition at 50 µM (P. aeruginosa ATCC 9027; [4]) was 94.5 ± 0.8%. The inhibition at 100 µM (P. aeruginosa ATCC 9027; 100 µM, read-out: Average inhibition %, biofilms biomass) was 82.4 ± 25.2%, the inhibition at 100 µM (P. aeruginosa ATCC 9027; 100 µM, read-out: Average inhibition %, planktonic cells turbidity) was 97.2 ± 2.5% and the inhibition at 150 µM (P. aeruginosa ATCC 9027; 150 µM, read-out: Average inhibition %, biofilms biomass) was 89.4 ± 13.3%. For the same compound, the inhibition at 150 µM (P. aeruginosa ATCC 9027; 150 µM, read-out: Average inhibition %, planktonic cells turbidity) was 96.9 ± 1.2%, the inhibition at 200 µM (P. aeruginosa ATCC 9027; 200 µM, read-out: Average inhibition %, biofilms biomass) was 94.3 ± 1.4% and the inhibition at 200 µM (P. aeruginosa ATCC 9027; 200 µM, read-out: Average inhibition %, planktonic cells turbidity) was 97.5 ± 0.3%. The MIC (S. aureus ATCC 25923 [1]; lowest concentration with no visible growth (>90% inhibition of turbidity and viability of planktonic cells), 18 h, read-out: MIC S. aureus ATCC 25923) was 15 to 25 µM (≈ 4.61 to 7.69 µg/mL), the inhibition at 5 µM (S. aureus ATCC 25923 [1]; 5 µM, read-out: Average inhibition %, biofilms biomass) was 33.6 ± 16% and the inhibition at 5 µM (S. aureus ATCC 25923 [1]; 5 µM, read-out: Average inhibition %, planktonic cells turbidity) was 25.6 ± 36.8%. For the same compound, the inhibition at 10 µM (S. aureus ATCC 25923 [1]; [5]) was 29.2 ± 14.5%, the inhibition at 10 µM (S. aureus ATCC 25923 [1]; [6]) was 36.2 ± 26.1% and the inhibition at 15 µM (S. aureus ATCC 25923 [1]; [7]) was 66.4 ± 27.2%. The inhibition at 15 µM (S. aureus ATCC 25923 [1]; [8]) was 61.4 ± 37.8%, the inhibition at 25 µM (S. aureus ATCC 25923 [1]; [9]) was 92.2 ± 6.9% and the inhibition at 25 µM (S. aureus ATCC 25923 [1]; [10]) was 98.9 ± 0.6%. For the same compound, the MIC (S. aureus ATCC 25923 [1]; read-out: MIC (S. aureus)) was 15 to 25 µM (≈ 4.61 to 7.69 µg/mL), the “Average inhibition %, biofilms viability” value (S. aureus ATCC 25923 [1]; 5 µM) was 17.4 ± 8.1% and the “Average inhibition %, planktonic cells viability” value (S. aureus ATCC 25923 [1]; 5 µM) was 12.3 ± 21.4%. For the same compound, the “Average inhibition %, biofilms viability” value (S. aureus ATCC 25923 [1]; 10 µM) was 29.1 ± 5.4%, the “Average inhibition %, planktonic cells viability” value (S. aureus ATCC 25923 [1]; 10 µM) was 14.8 ± 15.3% and the “Average inhibition %, biofilms viability” value (S. aureus ATCC 25923 [1]; 15 µM) was 52.5 ± 43.2%. For the same compound, the “Average inhibition %, planktonic cells viability” value (S. aureus ATCC 25923 [1]; 15 µM) was 36.1 ± 55.2%, the “Average inhibition %, biofilms viability” value (S. aureus ATCC 25923 [1]; 25 µM) was 99.7 ± 0% and the “Average inhibition %, planktonic cells viability” value (S. aureus ATCC 25923 [1]; 25 µM) was 99.9 ± 0.2%. For the same compound, the “Average inhibition %, biofilms viability” value (A. baumannii NCTC 13423; 10 µM) was 0.2 ± 0.4%, the “Average inhibition %, planktonic cells viability” value (A. baumannii NCTC 13423; 10 µM) was 5.5 ± 0.6% and the “Average inhibition %, biofilms viability” value (A. baumannii NCTC 13423; 15 µM) was 99.2 ± 1.1%. For the same compound, the “Average inhibition %, planktonic cells viability” value (A. baumannii NCTC 13423; 15 µM) was 99.8 ± 0.1%, the “Average inhibition %, biofilms viability” value (A. baumannii NCTC 13423; 25 µM) was 100 ± 1.1% and the “Average inhibition %, planktonic cells viability” value (A. baumannii NCTC 13423; 25 µM) was 99.8 ± 0.2%. The “Average inhibition %, biofilms viability” value (A. baumannii NCTC 13423; 50 µM) was 98.7 ± 2.5%, the “Average inhibition %, planktonic cells viability” value (A. baumannii NCTC 13423; 50 µM) was 99.8 ± 0.1% and the inhibition at 10 µM (A. baumannii NCTC 13423; [5]) was 0.6 ± 1%. The inhibition at 10 µM (A. baumannii NCTC 13423; [6]) was 0%, the inhibition at 15 µM (A. baumannii NCTC 13423; [7]) was 76.9 ± 3.5% and the inhibition at 15 µM (A. baumannii NCTC 13423; [8]) was 99.1 ± 1.1%. For the same compound, the inhibition at 25 µM (A. baumannii NCTC 13423; [9]) was 81.7 ± 1%, the inhibition at 25 µM (A. baumannii NCTC 13423; [10]) was 99.1 ± 1% and the inhibition at 50 µM (A. baumannii NCTC 13423; [3]) was 79 ± 3.8%. It also gave an inhibition at 50 µM (A. baumannii NCTC 13423; [4]) of 98.3 ± 0.9%, an MIC (A. baumannii NCTC 13423; pre-exposure, Inactive = no activity up to 50 μM, > = some inhibition but no MIC reached, read-out: MIC A. baumannii NCTC 13423) of 15 µM (≈ 4.61 µg/mL) and an MIC (A. baumannii NCTC 13423; supplementary molecular formula strings sheet, read-out: MIC (A. baumannii)) of 15 µM (≈ 4.61 µg/mL). The “Average inhibition %, biofilms viability” value (S. aureus ATCC 25923 [2]; 25 µM) was 14.4 ± 14%, the “Average inhibition %, planktonic cells viability” value (S. aureus ATCC 25923 [2]; 25 µM) was 0 ± 0% and the “Average inhibition %, biofilms viability” value (S. aureus ATCC 25923 [2]; 50 µM) was 23.1 ± 5.1%. The “Average inhibition %, planktonic cells viability” value (S. aureus ATCC 25923 [2]; 50 µM) was 12.8 ± 18.3%, the “Average inhibition %, biofilms viability” value (S. aureus ATCC 25923 [2]; 100 µM) was 35.4 ± 15.6% and the “Average inhibition %, planktonic cells viability” value (S. aureus ATCC 25923 [2]; 100 µM) was 61.4 ± 27.6%. The “Average inhibition %, biofilms viability” value (S. aureus ATCC 25923 [2]; 200 µM) was 75.7 ± 18.5%, the “Average inhibition %, planktonic cells viability” value (S. aureus ATCC 25923 [2]; 200 µM) was 98 ± 3.3% and the inhibition at 25 µM (S. aureus ATCC 25923 [2]; [11]) was 38.4 ± 9.2%. For the same compound, the inhibition at 25 µM (S. aureus ATCC 25923 [2]; [12]) was 6.1 ± 8%, the inhibition at 50 µM (S. aureus ATCC 25923 [2]; [11]) was 50.1 ± 4.6% and the inhibition at 50 µM (S. aureus ATCC 25923 [2]; [12]) was 33.5 ± 18.7%. For the same compound, the inhibition at 100 µM (S. aureus ATCC 25923 [2]; [11]) was 64.7 ± 9.1%, the inhibition at 100 µM (S. aureus ATCC 25923 [2]; [12]) was 48.9 ± 21.5% and the inhibition at 200 µM (S. aureus ATCC 25923 [2]; [11]) was 79.9 ± 12%. For the same compound, the inhibition at 200 µM (S. aureus ATCC 25923 [2]; [12]) was 79.1 ± 6.3%.

— article PMC8296573, “Synthesis and Biological Evaluation of Fingolimod Derivatives as Antibacterial Agents” (ACS Omega, 2021)
